Assay: solubility of sunitinib base (applicants' observation)
Format: physicochemical
Conditions: qualitative; dissolution in solvents for salt preparation
Source text: In this regard, the low solubility of sunitinib base requires large amounts of solvents or mixture of solvents and/or the use of particular harsh conditions aimed to increase the solubility of sunitinib base and/or reduce long reaction times, which represents a significant drawback, especially for industrial scale-up. Further, solid sunitinib base is difficult to handle since it is a very fine powder which is difficult to filter and isolate.

CCN(CC)CCNC(=O)c1c(C)[nH]c(/C=C2\C(=O)Nc3ccc(F)cc32)c1C [sunitinib base, N-[2-(diethylamino)ethyl]-5-[(Z)-(5-fluoro-1,2-dihydro-2-oxo-3H-indol-3-yliden)methyl]-2,4-dimethyl-1H-pyrrole-3-carboxamide]
solubility profile: low solubility profile

Source: patent US8153678B2, “Process for preparing A 3-pyrrole substituted 2-indolinone malate salt” (Medichem, S.A., priority 2008, dated 2012)
